According to patent US7544686B2, “Piperazinylalkylpyrazole derivatives useful as selective T-type calcium channel blockers and preparation method thereof” (Korea Institute of Science and Technology, priority 2005, dated 2009):

Key:
α1G T-type Ca^2+ channel = biological target: T1, α1G T-type Ca^2+ channel (Homo sapiens, UniProt O43497); assay: T-type Ca2+ channel blocking activity in HEK293 cells, whole-cell patch clamp; format: cell-based; details: HEK293 cells expressing α1G; for inhibition at 10 µM: 10 μM (0.1% DMSO), peak current; for IC50: whole-cell patch clamp, -100 mV to -30 mV
T1 construct: expressed in transfected cells; host or cells: HEK293 cells, G-418 selected
Method: (§1) In order to evaluate the pharmaceutical effects induced by the compounds of the present invention, the inhibitory effects were examined according to the following procedure. As the first step, those that show more than 50% of inhibition to the calcium channel (α1H) expressed in Xenopus oocytes were screened. For the second step, α1G Ca^2+ channel activities expressed in HEK 293 cells were measured to determine the effective inhibition concentration IC50.
Measurement of T-type Ca^2+ Channel Blocking Activity of HEK293 Cells by Using Electrophysiological Method
The culture medium was prepared by adding 10% fetal bovine serum (FBS) and 1% penicillin/streptomycin (v/v) to Dulbecco's modified Eagle's medium (DMEM). The cells were cultured in an incubator having a wet condition of 95% air/5% CO2 at 37° C. The medium was replaced every 3 to 4 days and the cells were sub-cultured every week such that only the cells that expressed α1G T-type Ca^2+ channels could be grown using G-418 (0.5 mg/ml) solution. The cells that were used to measure T-type Ca^2+ channel activity were incubated on a cover slip coated by poly-L-lysine (0.5 mg/ml) every time they were sub-cultured and then recorded after 2 to 3 days. T-type Ca^2+ channel currents at the single-cell level were determined by the electrophysiological whole-cells patch clamp technique using EPC-9 amplifier (HEKA, German). Extracellular solution of NaCl 140 mM, CaCl2 2 mM, HEPES 10 mM (pH 7.4), and intracellular solution of KCl 130 mM, HEPES 10 mM, EGTA 11 mM, MgATP 5 mM (pH 7.4) were used for T-type Ca^2+ channel blocking activity. As the low voltage-activated T-type Ca^2+ channel activity protocol, a fine glass electrode of 3-4 MΩ resistance containing the above-prepared intracellular solution was inserted into a single cell to become the whole-cell recording mode, followed by fixing the potential of the cell membrane at −100 mV and measuring the inward current of the T-type Ca^2+ channel activity when […] at −30 mV (50 ms duration) every 15 seconds. Each compound was dissolved in 100% dimethylsulfoxide (DMSO) to prepare 10 mM stock solution, and then the effect of T-type Ca^2+ channel current at 1,000 fold diluted concentration of 10 μM (including 0.1% DMSO) was initially measured before IC50 values were determined by testing the effects at the concentration range for the IC50 measurement (in general, 0.1-100 μM). Specifically, cells were treated with each compound along with the extracellular solution until T-type Ca^2+ channel currents were stabilized under whole-cell voltage-clamp conditions and the inhibition level of the peak current due to the compound was calculated and expressed in percentage.

calcium channel (α1H) = biological target: T2, calcium channel (α1H) (Homo sapiens, UniProt O95180); assay: Inhibition of calcium channel (α1H) expressed in Xenopus oocytes (first-step screen); format: cell-based; details: read-out: % Inhibition in oocyte (100 μM)
T2 construct: expressed in transfected cells; host or cells: Xenopus oocytes
Method: as §1

T1 sequence (O43497 whole entry): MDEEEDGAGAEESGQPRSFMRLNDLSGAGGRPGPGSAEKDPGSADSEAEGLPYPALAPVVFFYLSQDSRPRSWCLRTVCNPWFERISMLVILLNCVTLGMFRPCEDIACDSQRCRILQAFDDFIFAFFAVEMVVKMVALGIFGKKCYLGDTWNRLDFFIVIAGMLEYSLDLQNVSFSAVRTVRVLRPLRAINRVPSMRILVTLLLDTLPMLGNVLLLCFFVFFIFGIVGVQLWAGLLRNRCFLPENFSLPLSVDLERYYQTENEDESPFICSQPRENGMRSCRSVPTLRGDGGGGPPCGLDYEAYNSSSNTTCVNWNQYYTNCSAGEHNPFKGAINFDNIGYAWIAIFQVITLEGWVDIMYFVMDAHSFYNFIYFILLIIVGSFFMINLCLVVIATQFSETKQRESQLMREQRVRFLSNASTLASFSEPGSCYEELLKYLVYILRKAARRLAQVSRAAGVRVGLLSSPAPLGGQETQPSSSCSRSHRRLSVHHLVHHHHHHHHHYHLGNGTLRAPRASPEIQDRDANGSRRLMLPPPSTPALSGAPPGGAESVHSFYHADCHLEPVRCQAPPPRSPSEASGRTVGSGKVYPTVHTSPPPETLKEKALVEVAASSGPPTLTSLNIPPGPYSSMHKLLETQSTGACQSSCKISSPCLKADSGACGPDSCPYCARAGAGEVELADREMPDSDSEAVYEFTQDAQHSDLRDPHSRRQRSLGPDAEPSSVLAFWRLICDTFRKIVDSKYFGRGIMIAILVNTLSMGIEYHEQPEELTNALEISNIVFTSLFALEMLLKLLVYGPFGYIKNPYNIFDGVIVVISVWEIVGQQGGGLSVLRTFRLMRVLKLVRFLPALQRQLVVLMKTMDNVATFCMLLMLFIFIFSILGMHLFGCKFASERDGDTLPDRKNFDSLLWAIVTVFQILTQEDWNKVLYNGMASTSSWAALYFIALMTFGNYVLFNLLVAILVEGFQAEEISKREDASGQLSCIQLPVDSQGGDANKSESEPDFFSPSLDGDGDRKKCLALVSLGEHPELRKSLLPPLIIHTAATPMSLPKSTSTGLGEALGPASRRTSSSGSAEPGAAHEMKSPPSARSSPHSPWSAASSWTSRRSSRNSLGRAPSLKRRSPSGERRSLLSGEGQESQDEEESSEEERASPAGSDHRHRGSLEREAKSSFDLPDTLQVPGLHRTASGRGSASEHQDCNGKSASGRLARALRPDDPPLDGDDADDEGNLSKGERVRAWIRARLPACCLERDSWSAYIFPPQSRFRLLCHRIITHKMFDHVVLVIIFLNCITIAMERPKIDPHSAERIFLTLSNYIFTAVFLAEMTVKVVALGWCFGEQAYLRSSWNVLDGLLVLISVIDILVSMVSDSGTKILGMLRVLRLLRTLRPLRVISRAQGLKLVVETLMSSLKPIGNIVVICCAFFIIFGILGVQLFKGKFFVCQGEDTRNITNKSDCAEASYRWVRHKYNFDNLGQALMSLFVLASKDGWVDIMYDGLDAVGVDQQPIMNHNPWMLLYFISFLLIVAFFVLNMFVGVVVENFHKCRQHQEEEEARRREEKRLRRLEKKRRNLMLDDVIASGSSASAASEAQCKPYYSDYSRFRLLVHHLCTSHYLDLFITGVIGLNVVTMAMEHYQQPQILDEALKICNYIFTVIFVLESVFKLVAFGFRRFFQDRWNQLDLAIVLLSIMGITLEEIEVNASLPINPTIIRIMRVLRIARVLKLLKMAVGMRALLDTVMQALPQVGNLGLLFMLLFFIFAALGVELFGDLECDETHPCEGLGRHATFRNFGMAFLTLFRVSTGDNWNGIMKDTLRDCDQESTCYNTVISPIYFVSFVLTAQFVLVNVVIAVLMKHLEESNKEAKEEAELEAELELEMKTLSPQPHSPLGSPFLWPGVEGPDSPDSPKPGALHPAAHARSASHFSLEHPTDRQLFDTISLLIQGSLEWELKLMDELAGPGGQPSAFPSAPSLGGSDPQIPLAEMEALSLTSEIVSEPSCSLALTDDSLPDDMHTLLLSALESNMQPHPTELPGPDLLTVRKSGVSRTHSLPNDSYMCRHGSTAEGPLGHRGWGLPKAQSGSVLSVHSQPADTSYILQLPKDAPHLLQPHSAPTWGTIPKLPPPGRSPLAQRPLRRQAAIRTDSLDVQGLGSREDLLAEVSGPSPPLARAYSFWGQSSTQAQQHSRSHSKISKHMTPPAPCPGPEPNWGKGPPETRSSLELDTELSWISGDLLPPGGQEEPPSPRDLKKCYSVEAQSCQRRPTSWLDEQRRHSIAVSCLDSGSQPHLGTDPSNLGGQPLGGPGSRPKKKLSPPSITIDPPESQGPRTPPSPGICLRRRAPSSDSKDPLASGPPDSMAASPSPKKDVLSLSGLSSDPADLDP
T2 sequence (O95180 whole entry): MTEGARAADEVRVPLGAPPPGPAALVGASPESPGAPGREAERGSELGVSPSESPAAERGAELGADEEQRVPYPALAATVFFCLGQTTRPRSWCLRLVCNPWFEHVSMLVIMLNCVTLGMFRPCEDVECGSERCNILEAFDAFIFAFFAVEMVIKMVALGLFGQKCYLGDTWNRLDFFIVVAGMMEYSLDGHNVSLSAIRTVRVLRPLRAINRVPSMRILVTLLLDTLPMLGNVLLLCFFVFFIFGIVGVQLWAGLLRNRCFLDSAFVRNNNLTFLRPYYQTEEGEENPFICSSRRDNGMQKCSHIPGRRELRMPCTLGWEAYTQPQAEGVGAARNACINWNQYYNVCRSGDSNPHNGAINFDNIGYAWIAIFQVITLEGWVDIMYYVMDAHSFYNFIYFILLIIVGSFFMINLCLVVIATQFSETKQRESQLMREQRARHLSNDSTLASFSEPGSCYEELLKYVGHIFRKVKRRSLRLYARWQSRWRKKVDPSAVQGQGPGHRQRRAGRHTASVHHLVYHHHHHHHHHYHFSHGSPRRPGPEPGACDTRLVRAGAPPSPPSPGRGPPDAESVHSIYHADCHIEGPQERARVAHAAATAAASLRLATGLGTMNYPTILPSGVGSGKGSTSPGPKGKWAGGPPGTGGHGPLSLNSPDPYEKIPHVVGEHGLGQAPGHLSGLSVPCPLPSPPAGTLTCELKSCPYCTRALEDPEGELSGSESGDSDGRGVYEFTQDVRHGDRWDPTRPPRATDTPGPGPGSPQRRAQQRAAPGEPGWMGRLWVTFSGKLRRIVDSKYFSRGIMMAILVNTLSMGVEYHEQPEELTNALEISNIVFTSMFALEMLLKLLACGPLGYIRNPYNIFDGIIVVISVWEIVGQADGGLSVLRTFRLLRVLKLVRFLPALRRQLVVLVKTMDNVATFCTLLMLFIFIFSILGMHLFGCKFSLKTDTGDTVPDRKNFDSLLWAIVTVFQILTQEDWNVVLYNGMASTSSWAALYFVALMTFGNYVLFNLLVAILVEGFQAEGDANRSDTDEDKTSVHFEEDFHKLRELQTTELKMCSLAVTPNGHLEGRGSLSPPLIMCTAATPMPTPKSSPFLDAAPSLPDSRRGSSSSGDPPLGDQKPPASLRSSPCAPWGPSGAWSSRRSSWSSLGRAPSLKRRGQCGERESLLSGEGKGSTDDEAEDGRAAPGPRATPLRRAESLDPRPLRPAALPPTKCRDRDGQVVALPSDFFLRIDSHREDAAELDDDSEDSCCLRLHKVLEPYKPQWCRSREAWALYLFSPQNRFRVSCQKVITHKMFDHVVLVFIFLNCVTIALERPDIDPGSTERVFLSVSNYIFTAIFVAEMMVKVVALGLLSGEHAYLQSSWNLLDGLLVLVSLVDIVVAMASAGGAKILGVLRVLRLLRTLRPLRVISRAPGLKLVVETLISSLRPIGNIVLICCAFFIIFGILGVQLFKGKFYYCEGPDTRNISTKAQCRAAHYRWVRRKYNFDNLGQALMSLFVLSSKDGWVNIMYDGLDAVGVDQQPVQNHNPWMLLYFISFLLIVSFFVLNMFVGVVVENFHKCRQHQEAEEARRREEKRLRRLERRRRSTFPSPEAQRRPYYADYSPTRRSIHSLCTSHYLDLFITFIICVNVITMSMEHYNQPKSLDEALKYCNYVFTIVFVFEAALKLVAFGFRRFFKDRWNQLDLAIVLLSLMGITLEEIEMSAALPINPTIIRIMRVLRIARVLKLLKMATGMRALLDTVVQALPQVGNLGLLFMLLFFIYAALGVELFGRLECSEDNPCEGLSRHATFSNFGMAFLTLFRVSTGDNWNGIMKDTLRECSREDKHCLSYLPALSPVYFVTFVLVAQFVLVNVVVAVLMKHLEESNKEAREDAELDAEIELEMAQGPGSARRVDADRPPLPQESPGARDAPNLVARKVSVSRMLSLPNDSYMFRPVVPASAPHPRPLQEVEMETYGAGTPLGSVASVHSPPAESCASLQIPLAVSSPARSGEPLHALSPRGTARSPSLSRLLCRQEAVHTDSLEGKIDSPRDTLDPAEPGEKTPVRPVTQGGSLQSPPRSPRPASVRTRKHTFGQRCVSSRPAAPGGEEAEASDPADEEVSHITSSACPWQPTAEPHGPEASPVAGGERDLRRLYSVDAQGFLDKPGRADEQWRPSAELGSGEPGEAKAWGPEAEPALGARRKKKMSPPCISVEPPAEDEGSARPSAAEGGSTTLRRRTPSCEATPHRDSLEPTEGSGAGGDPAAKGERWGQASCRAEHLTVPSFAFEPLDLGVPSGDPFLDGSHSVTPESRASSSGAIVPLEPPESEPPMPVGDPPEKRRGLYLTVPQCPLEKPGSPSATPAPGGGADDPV

## CCCc1cc(CNCCN2CCN(c3ccccc3)CC2)nn1-c1ccccc1 [compound 4, 5-propyl-1-phenyl-3-[2-(4-phenylpiperazin-1-yl)ethyl]aminomethylpyrazole]
α1G T-type Ca^2+ channel
  inhibition at 10 µM: 94.5 ± 2.8%
  IC50: 300 ± 30 nM
Calcium channel (α1H)
  inhibition at 100 µM: 80.1%

## CC(C)Cc1cc(CNCCN2CCN(c3ccccc3)CC2)nn1-c1ccccc1 [compound 7, 5-iso-butyl-1-phenyl-3-[2-(4-phenylpiperazin-1-yl)ethyl]aminomethylpyrazole]
α1G T-type Ca^2+ channel
  inhibition at 10 µM: 87.9 ± 2.7%
  IC50: 820 ± 40 nM
Calcium channel (α1H)
  inhibition at 100 µM: 77.1%

## CCCc1cc(CNCCN2CCN(c3cccc(C)c3C)CC2)nn1C(C)(C)C [compound 15, 1-t-butyl-3-{2-[4-(2,3-dimethylphenyl)piperazin-1-yl]ethyl}aminomethyl-5-propylpyrazole]
α1G T-type Ca^2+ channel
  inhibition at 10 µM: 79.4 ± 1.6%
  IC50: 1430 ± 150 nM
Calcium channel (α1H)
  inhibition at 100 µM: 27.5%

## CCCc1cc(CNCCN2CCN(c3cccc(C)c3C)CC2)nn1-c1ccccc1 [compound 16, 3-{2-[4-(2,3-dimethylphenyl)piperazin-1-yl]ethyl}aminomethyl-1-phenyl-5-propylpyrazole]
α1G T-type Ca^2+ channel
  inhibition at 10 µM: 95.9 ± 0.7%
  IC50: 580 ± 50 nM
Calcium channel (α1H)
  inhibition at 100 µM: 74.6%

## Cc1cccc(N2CCN(CCNCc3cc(CC(C)C)n(-c4ccccc4)n3)CC2)c1C [compound 18, 5-iso-butyl-3-{2-[4-(2,3-dimethylphenyl)piperazin-1-yl]ethyl}aminomethyl-1-phenylpyrazole]
α1G T-type Ca^2+ channel
  inhibition at 10 µM: 92.7 ± 5.7%
  IC50: 1020 ± 100 nM
Calcium channel (α1H)
  inhibition at 100 µM: 92%

## COc1ccc(N2CCN(CCNCc3cc(C)n(-c4ccccc4)n3)CC2)cc1 [compound 37, 3-{2-[4-(4-methoxyphenyl)piperazin-1-yl]ethyl}aminomethyl-5-methyl-1-phenylpyrazole]
α1G T-type Ca^2+ channel
  inhibition at 10 µM: 53 ± 1.6%
  IC50: 9410 ± 550 nM

## CCCc1cc(CNCCN2CCN(c3ccc(OC)cc3)CC2)nn1-c1ccccc1 [compound 39, 3-{2-[4-(4-methoxyphenyl)piperazin-1-yl]ethyl}aminomethyl-5-propyl-1-phenylpyrazole]
α1G T-type Ca^2+ channel
  inhibition at 10 µM: 91.6 ± 0.5%
  IC50: 900 ± 70 nM
Calcium channel (α1H)
  inhibition at 100 µM: 67.8%

## COc1ccc(N2CCN(CCNCc3cc(CC(C)C)n(-c4ccccc4)n3)CC2)cc1 [compound 42, 5-iso-butyl-3-{2-[4-(4-methoxyphenyl)piperazin-1-yl]ethyl}aminomethyl-1-phenyl pyrazole]
α1G T-type Ca^2+ channel
  inhibition at 10 µM: 95.6 ± 1.8%
  IC50: 1040 ± 150 nM
Calcium channel (α1H)
  inhibition at 100 µM: 73.3%

## CCCc1cc(CNCCN2CCN(c3ccc([N+](=O)[O-])cc3)CC2)nn1-c1ccccc1 [compound 51, 3-{2-[4-(4-nitrophenyl)piperazin-1-yl]ethyl}aminomethyl-1-phenyl-5-propylpyrazole]
α1G T-type Ca^2+ channel
  inhibition at 10 µM: 95.3 ± 1.4%
  IC50: 660 ± 70 nM
Calcium channel (α1H)
  inhibition at 100 µM: 51.3%

## CC(C)Cc1cc(CNCCN2CCN(c3ccc([N+](=O)[O-])cc3)CC2)nn1C(C)(C)C [compound 52, 1-t-butyl-5-iso-butyl-3-{2-[4-(4-nitrophenyl)piperazin-1-yl]ethyl}aminomethylpyrazole]
α1G T-type Ca^2+ channel
  IC50: 1770 ± 200 nM
Calcium channel (α1H)
  inhibition at 100 µM: 56.4%

## CC(C)Cc1cc(CNCCN2CCN(c3ccc([N+](=O)[O-])cc3)CC2)nn1-c1ccccc1 [compound 53, 5-iso-butyl-3-{2-[4-(4-nitrophenyl)piperazin-1-yl]ethyl}aminomethyl-1-phenylpyrazole]
α1G T-type Ca^2+ channel
  inhibition at 10 µM: 94.8 ± 1.3%
  IC50: 1060 ± 20 nM
Calcium channel (α1H)
  inhibition at 100 µM: 74.4%

## CCCc1cc(CNCCN2CCN(c3ccccc3F)CC2)nn1-c1ccccc1 [compound 63, 3-{2-[4-(2-fluorophenyl)piperazin-1-yl]ethyl}aminomethyl-1-phenyl-5-propylpyrazole]
α1G T-type Ca^2+ channel
  inhibition at 10 µM: 93.8 ± 1.4%
  IC50: 660 ± 40 nM
Calcium channel (α1H)
  inhibition at 100 µM: 54.9%

## CCCc1cc(CNCCN2CCN(c3cccc(Cl)c3)CC2)nn1-c1ccccc1 [compound 76, 3-{2-[4-(3-chlorophenyl)piperazin-1-yl]ethyl}aminomethyl-1-phenyl-5-propylpyrazole]
α1G T-type Ca^2+ channel
  inhibition at 10 µM: 75.8 ± 1%
  IC50: 900 ± 90 nM
Calcium channel (α1H)
  inhibition at 100 µM: 44.7%

## Cc1cc(CNCCN2CCN(C(c3ccccc3)c3ccccc3)CC2)nn1-c1ccccc1 [compound 81, 3-{2-[4-(4-diphenylmethyl)piperazin-1-yl]ethyl}aminomethyl-5-methyl-1-phenylpyrazole]
α1G T-type Ca^2+ channel
  inhibition at 10 µM: 97.4 ± 1.3%
  IC50: 570 ± 60 nM
Calcium channel (α1H)
  inhibition at 100 µM: 95.4%

## CCCc1cc(CNCCN2CCN(C(c3ccccc3)c3ccccc3)CC2)nn1C(C)(C)C [compound 82, 1-t-butyl-3-{2-[4-(4-diphenylmethyl)piperazin-1-yl]ethyl}aminomethyl-5-propyl pyrazole]
α1G T-type Ca^2+ channel
  inhibition at 10 µM: 60.5 ± 0.6%
  IC50: 4420 ± 890 nM
Calcium channel (α1H)
  inhibition at 100 µM: 24.8%

## CCCc1cc(CNCCN2CCN(C(c3ccccc3)c3ccccc3)CC2)nn1-c1ccccc1 [compound 83, 3-{2-[4-(4-diphenylmethyl)piperazin-1-yl]ethyl}aminomethyl-1-phenyl-5-propylpyrazole]
α1G T-type Ca^2+ channel
  inhibition at 10 µM: 92.4 ± 1.8%
  IC50: 300 ± 40 nM
Calcium channel (α1H)
  inhibition at 100 µM: 97.8%

## CC(C)Cc1cc(CNCCN2CCN(C(c3ccccc3)c3ccccc3)CC2)nn1C(C)(C)C [compound 84, 1-t-butyl-5-iso-butyl-3-{2-[4-(4-diphenylmethyl)piperazin-1-yl]ethyl}aminomethylpyrazole]
α1G T-type Ca^2+ channel
  inhibition at 10 µM: 89.9 ± 0.3%
  IC50: 2190 ± 30 nM
Calcium channel (α1H)
  inhibition at 100 µM: 40.4%

## Cc1cc(CNCCN2CCN(C(c3ccccc3)c3ccc(Cl)cc3)CC2)nn1-c1ccccc1 (stereo not shown) [compound 92, 3-{2-[4-(4-chlorobenzhydryl)piperazin-1-yl]ethyl}aminomethyl-5-methyl-1-phenylpyrazole]
α1G T-type Ca^2+ channel
  inhibition at 10 µM: 79.2 ± 3.3%
  IC50: 330 ± 660 nM
Calcium channel (α1H)
  inhibition at 100 µM: 34.5%

## CCCc1cc(CNCCN2CCN(C(c3ccccc3)c3ccc(Cl)cc3)CC2)nn1-c1ccccc1 (stereo not shown) [compound 94, 3-{2-[4-(4-chlorobenzhydryl)piperazin-1-yl]ethyl}aminomethyl-1-phenyl-5-propylpyrazole]
α1G T-type Ca^2+ channel
  inhibition at 10 µM: 100%
  IC50: 650 ± 30 nM
Calcium channel (α1H)
  inhibition at 100 µM: 92.9%
